For series [1], the system named is GABAA receptor α5 subtype. Further details: method as in PMID 30102960, PMID 32578977. The note with it: cited from earlier work.
Series [2] in a line: Plasma free fraction (fp), ultrafiltration method. It is filed as in vitro ADME, rhesus monkeys (Macaca mulatta). The note with it: measured in triplicate per scan, mean ± SD. The procedure:
The plasma free fraction (fp) for each scan was measured in triplicate using the ultrafiltration method and calculated as the ratio of radioactivity in the filtrate to that in the plasma ([24]).

The target in series [3] is P-glycoprotein (PgP) (Homo sapiens, UniProt P08183). Kind of series: Efflux by P-glycoprotein. It is filed as in vitro ADME.
Sequence of P-glycoprotein (PgP) (P08183 whole entry): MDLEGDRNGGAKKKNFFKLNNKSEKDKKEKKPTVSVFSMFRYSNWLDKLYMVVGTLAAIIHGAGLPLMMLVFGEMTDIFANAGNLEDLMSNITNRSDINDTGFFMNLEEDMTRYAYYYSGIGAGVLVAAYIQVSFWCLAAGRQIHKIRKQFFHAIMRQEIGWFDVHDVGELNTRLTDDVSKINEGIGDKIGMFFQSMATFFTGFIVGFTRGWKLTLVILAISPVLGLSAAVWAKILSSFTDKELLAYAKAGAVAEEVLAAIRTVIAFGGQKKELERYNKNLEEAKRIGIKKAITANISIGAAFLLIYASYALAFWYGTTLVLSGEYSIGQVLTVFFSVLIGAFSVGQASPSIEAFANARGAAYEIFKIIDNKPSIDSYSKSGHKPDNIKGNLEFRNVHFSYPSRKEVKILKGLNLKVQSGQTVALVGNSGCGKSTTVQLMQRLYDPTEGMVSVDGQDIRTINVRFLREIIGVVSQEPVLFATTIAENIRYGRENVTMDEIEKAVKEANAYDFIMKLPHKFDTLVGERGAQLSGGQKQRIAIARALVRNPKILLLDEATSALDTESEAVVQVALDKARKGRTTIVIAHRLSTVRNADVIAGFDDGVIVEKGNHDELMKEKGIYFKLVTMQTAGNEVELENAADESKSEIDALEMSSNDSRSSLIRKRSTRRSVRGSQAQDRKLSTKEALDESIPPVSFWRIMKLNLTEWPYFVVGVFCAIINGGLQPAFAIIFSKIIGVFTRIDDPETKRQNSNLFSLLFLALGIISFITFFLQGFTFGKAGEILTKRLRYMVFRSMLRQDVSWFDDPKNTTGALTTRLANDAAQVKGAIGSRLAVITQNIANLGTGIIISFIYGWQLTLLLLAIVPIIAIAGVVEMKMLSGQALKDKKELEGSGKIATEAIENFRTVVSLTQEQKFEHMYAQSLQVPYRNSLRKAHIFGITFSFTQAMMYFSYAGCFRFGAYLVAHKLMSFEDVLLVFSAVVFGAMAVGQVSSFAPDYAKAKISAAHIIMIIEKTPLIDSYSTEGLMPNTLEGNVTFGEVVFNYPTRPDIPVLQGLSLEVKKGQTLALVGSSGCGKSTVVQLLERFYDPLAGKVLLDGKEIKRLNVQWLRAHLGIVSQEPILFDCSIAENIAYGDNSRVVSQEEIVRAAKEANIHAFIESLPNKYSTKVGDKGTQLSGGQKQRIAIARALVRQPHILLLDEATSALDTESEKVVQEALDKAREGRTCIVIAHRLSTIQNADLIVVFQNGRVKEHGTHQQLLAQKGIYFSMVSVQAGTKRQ
For series [4], the target named is T1, GAT-1 (Macaca mulatta, UniProt H9ELS5).
T1 construct: from tissue; host or cells: brain of living rhesus monkeys (in vivo PET)
T1 sequence (H9ELS5 1-599): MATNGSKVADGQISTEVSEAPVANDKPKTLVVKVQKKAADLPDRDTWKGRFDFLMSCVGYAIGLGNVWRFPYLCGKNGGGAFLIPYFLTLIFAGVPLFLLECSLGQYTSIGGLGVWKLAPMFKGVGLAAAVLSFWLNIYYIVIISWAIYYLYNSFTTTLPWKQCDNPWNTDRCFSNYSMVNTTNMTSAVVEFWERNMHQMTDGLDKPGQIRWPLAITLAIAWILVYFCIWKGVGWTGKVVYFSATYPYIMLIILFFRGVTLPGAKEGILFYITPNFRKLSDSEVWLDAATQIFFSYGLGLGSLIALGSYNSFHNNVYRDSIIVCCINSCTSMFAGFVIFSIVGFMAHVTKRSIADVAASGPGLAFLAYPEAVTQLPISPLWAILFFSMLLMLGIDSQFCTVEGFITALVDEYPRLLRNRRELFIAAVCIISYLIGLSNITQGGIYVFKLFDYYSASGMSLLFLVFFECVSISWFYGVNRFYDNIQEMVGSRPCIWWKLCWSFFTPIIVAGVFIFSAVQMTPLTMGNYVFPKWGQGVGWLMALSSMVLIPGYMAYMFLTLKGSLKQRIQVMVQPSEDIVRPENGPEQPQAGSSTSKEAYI
Kind of series: Occupancy plots from baseline and tiagabine blocking PET scans (occupancy, VND, BPND). It is filed as in vivo, rhesus monkeys (Macaca mulatta). The note with it: for VND: occupancy plot; for Occupancy: tiagabine 0.5 mg/kg occupancy measured with this radiotracer. The procedure:
(§1) Before each scan, each monkey was sedated with alfaxalone (2 mg/kg), midazolam (0.3 mg/kg), and dexmedetomidine (0.01 mg/kg), and anesthesia was maintained with 1.5%–2.5% isoflurane. Heart rate, blood pressure, respiration rate, and oxygen saturation were monitored continuously. An intravenous line was placed in the saphenous or cephalic vein for delivery of the radiotracer, as well as tiagabine during blocking studies (0.5 mg/kg administered 19 ± 4 min before radiotracer injections). A catheter was placed in the radial or tibial artery for blood sampling.
Occupancy plots ([26]) were used to estimate tiagabine occupancy and the nondisplaceable volume of distribution (VND). This VND value was used to compute the nondisplaceable binding potential (BPND = VT/VND − 1). To compare the performance between 2 radiotracers, a Guo plot ([27]) was created, using baseline VT values, to assess the relative affinity and BPND values of each radiotracer.

Series [5] in a line: Metabolite analysis of arterial plasma (unmetabolized parent fraction), column-switching HPLC. In kind it is in vivo, rhesus monkeys (Macaca mulatta). The note with it: mean ± SD. The procedure:
Arterial blood samples were collected for each scan to measure the input function. Metabolite analysis was performed using an automatic column-switching high-performance liquid chromatography system ([22]) for 7 arterial blood samples collected at 5, 15, 30, 60, 90, 120, and 180 min. The radiometabolite-corrected arterial plasma input function was obtained by calculating the product of the fitted total plasma (fitted with a sum of exponentials) and unmetabolized parent fraction curves (using an integrated γ-function ([23])).

Series [6] addresses T1, GAT-1. The experiment in a line: PET brain imaging with kinetic modeling (1TCM), baseline and tiagabine blocking scans. It is filed as in vivo, rhesus monkeys (Macaca mulatta). The note with it: for Median VT across ROIs: 1TCM. The procedure: Twenty scans were acquired from 4 rhesus monkeys (Macaca mulatta). Each monkey underwent baseline and blocking scans with ^18F-GATT-31, ^18F-GATT-34, ^18F-GATT-39, or ^18F-GATT-44 (Fig. 1) on a Focus-220 small-animal PET scanner (Siemens Healthineers).
as §1
Before injection, a transmission scan was acquired. Starting with injection of the radiotracer, PET emission data were acquired in list-mode format and binned into 45 frames (6 × 30 s, 3 × 1 min, 2 × 2 min, and 34 × 5 min).
For region-of-interest (ROI) definition, each PET image was registered to an in-house rhesus monkey anatomical MRI template using the concatenation of a rigid-body transformation between the summed PET image (0–10 min) and corresponding monkey’s MRI (using the FMRIB Linear Image Registration Tool) and a nonlinear transformation matrix estimated between the monkey’s MRI and the MRI template (BioImage Suite software version 3.01). Regional time–activity curves were extracted for the following 11 ROIs: brain stem, caudate, cerebellum, cingulate cortex, frontal cortex, hippocampus, insula, occipital cortex, putamen, temporal cortex, and thalamus.
For each baseline and blocking scan, kinetic analysis was performed using a 1-tissue compartment model (1TCM), a reversible 2-tissue compartment model (2TCM; k4 > 0), and an irreversible 2-tissue compartment model (2TiCM; k4 = 0), including a blood volume fraction (Vb) term and a time-delay term. Vb was estimated for each time–activity curve using the whole-blood curve fitted with a sum of exponentials. The time delay (Δt) between the input function and the brain was estimated by fitting the first 10 min of the whole-brain time–activity curve to a 1TCM with 3 parameters: K1, Vb, and Δt (k2 was set to 0 because of the negligible radiotracer washout during the first 10 min). This estimated time delay value was then used in the time–activity curve fits. The primary parameters of interest were the influx constant (K1, expressed in microliters per minute per cubic centimeter, since values were low), the volume of distribution (VT, expressed in milliliters per cubic centimeter), and the net influx constant (Ki, expressed in milliliters per minute per cubic centimeter) for 2TiCM.

A short description of series [7]: Plasma tiagabine concentration by mass spectrometry. In kind it is in vivo, rhesus monkeys (Macaca mulatta). The note with it: 0.5 mg/kg tiagabine i.v.; 30–190 min after tiagabine injection. The procedure:
For 8 of the 10 blocking scans, venous blood samples were acquired at 30, 60, 90, 120, 160, and 190 min after injection of tiagabine, in addition to 1 control sample before tiagabine injection, to measure its concentration using mass spectrometry (described in the supplemental materials).

On the set-up of series [8]: method as in PMID 9530548. The note with it: humans, 24-mg single oral dose; cited from earlier work.
The test system of series [9] is GABA. The note with it: vervet brain in vivo; cited from earlier work.
Series [10] relates to GAT-1. Further details: method as in PMID 10642842. The note with it: in vitro, human brain postmortem; cited from earlier work.
Where [11] appears, read: after blocking with tiagabine 0.5 mg/kg.

Results on five molecules are retold here after publication PMC12487869, “Toward Imaging of the GABA Transporter Type 1 In Vivo: Quantitative Evaluation of 4 Novel PET Radiotracers in Nonhuman Primates” (Journal of Nuclear Medicine, 2025).

Each structure is given as a SMILES string. “And” between values parts separate entries of the source, which are not always exact repeats. Equal entries are not always repeated.

Turning to `CCOC(=O)c1ncn2c1CN([11CH3])C(=O)c1cc(N=[N+]=[N-])ccc1-2` [[^11C]Ro15-4513], in series [1], the “Affinity” value is reported as “high affinity”.

In turn, `Cc1ccccc1C(=COCCN1CCCC(C(=O)O)C1)c1ccccc1[18F]` (stereo not shown) [^18F-GATT-31] registered a Free fraction in series [2] of 12.4 ± 1.8%. The “Efflux by PgP (category)” value in series [3] was “low efflux by PgP”. In addition, the VND in series [4] (monkey 1) was 0.31 mL/cm^3; in [4] (monkey 2), −0.61 mL/cm^3 and −0.61 ^* mL/cm^3; in series [4] (monkey 3) it was 1.02 mL/cm^3. Besides, the values for the Occupancy in series [4] (monkey 1), in [4] (monkey 2) and in [4] (monkey 3) were 69%, 22% and 70%, respectively. Further, the Parent compound is 87 ± 3% in series [5] (30 min); 76 ± 6% in series [5] (90 min); 63% and 63 ± 11% in series [5] (180 min). Besides, the entries for the “Median VT across ROIs” value in series [6] (setting [11]) and in series [6] (baseline) were 1.5 mL/cm^3 and 2.8 mL/cm^3, respectively.

In turn, `Cc1ccccc1C(=COCCN1CCCC(C(=O)O)C1)c1ccc([18F])cc1` (stereo not shown) [^18F-GATT-34] returned a Free fraction in series [2] of 10.8 ± 0.4%. The results for the Parent compound in series [5] (30 min) and in series [5] (90 min) were 91 ± 2% and 83 ± 2%, respectively. Moreover, the “Median VT across ROIs” value in series [6] (setting [11]) was 1.3 mL/cm^3; in series [6] (baseline), 1.5 mL/cm^3. The “Blocking effect of tiagabine on VT” value in series [6] (tiagabine 0.5 mg/kg) is on record as “small”.

In the case of `O=C(O)C1CCCN(CCC=C(c2ccccc2[18F])c2ccccc2Cl)C1` (stereo not shown) [^18F-GATT-39], in series [2], the Free fraction worked out at 10.5 ± 1.0%. Besides, the values for the Parent compound in [5] (30 min) and in series [5] (90 min) were 95 ± 4% and 85 ± 9%, respectively. In addition, the “K1 values” in [6] (1TCM influx constant) is listed as “especially low”. Moreover, the “Median VT across ROIs” value stood at 0.9 mL/cm^3 in [6] (setting [11]) and 1.6 mL/cm^3 in series [6] (baseline).

The molecule `Cc1ccsc1C(=CCCN1CCC[C@@H](C(=O)O)C1)c1sccc1C` [tiagabine, (R)-1-[4,4-bis(3-methyl-2-thienyl)-3-butenyl]-3-piperidinecarboxylic acid] yielded an Average plasma concentration in series [7] of 385 ± 70 µg/L. In [8], the Elimination half-life is 7.3 h and the “Plasma concentration peak value” is 552 ng/mL. In series [9], the “Effect on GABA in brain” value is “increase GABA”. Moreover, the “Selectivity for GAT-1” value in series [10] is listed as “excellent selectivity for GAT-1”.
